# Test results taken from PubChem BioAssay (NCI).
#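 Compound exposure: 48 hours, 5 concentrations, 96-well plates. GI50 marks 50% less growth. TGI: total growth inhibition.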
# Tests used:
# Assay in all cases: NCI tumour cell line growth inhibition, 48 h
# [1] = tested on: 786-0 renal
# [2] = tested on: A498 renal
# [3] = tested on: A549 NSCLC
# [4] = tested on: ACHN renal
# [5] = tested on: BT-549 breast
# [6] = tested on: CAKI-1 renal
# [7] = tested on: CCRF-CEM leukemia
# [8] = tested on: COLO 205 colon
# [9] = tested on: DU-145 prostate
# [10] = tested on: EKVX NSCLC
# [11] = tested on: HCC-2998 colon
# [12] = tested on: HCT-116 colon
# [13] = tested on: HCT-15 colon
# [14] = tested on: HL-60(TB) leukemia
# [15] = tested on: HOP-62 NSCLC
# [16] = tested on: HOP-92 NSCLC
# [17] = tested on: HS 578T breast
# [18] = tested on: HT29 colon
# [19] = tested on: IGROV1 ovarian
# [20] = tested on: K-562 leukemia
# [21] = tested on: KM12 colon
# [22] = tested on: LOX IMVI melanoma
# [23] = tested on: M14 melanoma
# [24] = tested on: MALME-3M melanoma
# [25] = tested on: MCF7 breast
# [26] = tested on: MDA-MB-231 breast
# [27] = tested on: MDA-MB-435
# [28] = tested on: MDA-MB-468 breast
# [29] = tested on: MOLT-4 leukemia
# [30] = tested on: NCI-H226 lung
# [31] = tested on: NCI-H23 lung
# [32] = tested on: NCI-H460 lung
# [33] = tested on: NCI-H522 lung
# [34] = tested on: NCI/ADR-RES ovarian
# [35] = tested on: OVCAR-3 ovarian
# [36] = tested on: OVCAR-4 ovarian
# [37] = tested on: OVCAR-5 ovarian
# [38] = tested on: OVCAR-8 ovarian
# [39] = tested on: PC-3 prostate
# [40] = tested on: RPMI-8226 leukemia
# [41] = tested on: RXF 393 renal
# [42] = tested on: SF-268 CNS
# [43] = tested on: SF-295 CNS
# [44] = tested on: SF-539 CNS
# [45] = tested on: SK-MEL-2 melanoma
# [46] = tested on: SK-MEL-28 melanoma
# [47] = tested on: SK-MEL-5 melanoma
# [48] = tested on: SK-OV-3 ovarian
# [49] = tested on: SN12C renal
# [50] = tested on: SNB-19 CNS
# [51] = tested on: SNB-75 CNS
# [52] = tested on: SR leukemia
# [53] = tested on: SW-620 colon
# [54] = tested on: T-47D breast
# [55] = tested on: TK-10 renal
# [56] = tested on: U251 CNS
# [57] = tested on: UACC-257 melanoma
# [58] = tested on: UACC-62 melanoma
# [59] = tested on: UO-31 renal
structure (smiles),measurement,setting,value
COc1cc(Cn2c(C(F)(F)F)cc3c(Cl)ncnc32)ccn1,GI50,[1],10.6 µM
same,TGI,[1],25.9 µM
same,GI50,[2],16 µM
same,TGI,[2],30.8 µM
same,GI50,[3],16.4 µM
same,TGI,[3],38.4 µM
same,GI50,[4],14.4 µM
same,TGI,[4],28.8 µM
same,GI50,[5],1.63 µM
same,TGI,[5],3.16 µM
same,GI50,[6],7.32 µM
same,TGI,[6],20.6 µM
same,GI50,[7],3.14 µM
same,TGI,[7],18.6 µM
same,GI50,[8],15.3 µM
same,TGI,[8],46.3 µM
same,GI50,[9],1.76 µM
same,TGI,[9],3.22 µM
same,GI50,[10],7.95 µM
same,TGI,[10],23.9 µM
same,GI50,[11],1.78 µM
same,TGI,[11],3.27 µM
same,GI50,[12],1.74 µM
same,TGI,[12],4.3 µM
same,GI50,[13],3.09 µM
same,GI50,[14],2.14 µM
same,TGI,[14],7.28 µM
same,GI50,[15],14.3 µM
same,TGI,[15],29.7 µM
same,GI50,[16],10.7 µM
same,TGI,[16],30.3 µM
same,GI50,[17],3.13 µM
same,TGI,[17],16.6 µM
same,GI50,[18],14.1 µM
same,TGI,[18],41.3 µM
same,GI50,[19],1.78 µM
same,TGI,[19],3.62 µM
same,GI50,[20],2.36 µM
same,TGI,[20],> 100 µM
same,GI50,[21],13.5 µM
same,TGI,[21],30.5 µM
same,GI50,[22],1.67 µM
same,TGI,[22],3.17 µM
same,GI50,[23],1.52 µM
same,TGI,[23],4.16 µM
same,GI50,[24],12.6 µM
same,TGI,[24],25.5 µM
same,GI50,[25],5.12 µM
same,TGI,[25],19.8 µM
same,GI50,[26],3.33 µM
same,TGI,[26],12.6 µM
same,GI50,[27],3.26 µM
same,TGI,[27],14.6 µM
same,GI50,[28],1.78 µM
same,TGI,[28],3.77 µM
same,GI50,[29],3.3 µM
same,TGI,[29],> 100 µM
same,GI50,[30],15.5 µM
same,TGI,[30],32.3 µM
same,GI50,[31],2.19 µM
same,TGI,[31],4.91 µM
same,GI50,[32],2.69 µM
same,TGI,[32],8.19 µM
same,GI50,[33],3.28 µM
same,TGI,[33],15.3 µM
same,GI50,[34],15.3 µM
same,TGI,[34],33.7 µM
same,GI50,[35],2.32 µM
same,TGI,[35],7.05 µM
same,GI50,[36],12 µM
same,TGI,[36],26.7 µM
same,GI50,[37],16 µM
same,TGI,[37],32.4 µM
same,GI50,[38],11.4 µM
same,TGI,[38],26.6 µM
same,GI50,[39],5.56 µM
same,TGI,[39],20.8 µM
same,GI50,[40],15.4 µM
same,TGI,[40],78.6 µM
same,GI50,[41],7.9 µM
same,TGI,[41],22.4 µM
same,GI50,[42],2.47 µM
same,TGI,[42],9.37 µM
same,GI50,[43],16.8 µM
same,TGI,[43],32.5 µM
same,GI50,[44],13.8 µM
same,TGI,[44],26.7 µM
same,GI50,[45],9.95 µM
same,TGI,[45],22.5 µM
same,GI50,[46],4.6 µM
same,TGI,[46],16.1 µM
same,GI50,[47],3.9 µM
same,TGI,[47],14.1 µM
same,GI50,[48],17.1 µM
same,TGI,[48],32.3 µM
same,GI50,[49],9.21 µM
same,TGI,[49],21.5 µM
same,GI50,[50],11.8 µM
same,TGI,[50],24.1 µM
same,GI50,[51],1.78 µM
same,TGI,[51],7.27 µM
same,GI50,[52],3.61 µM
same,TGI,[52],> 100 µM
same,GI50,[53],3.86 µM
same,TGI,[53],16.7 µM
same,GI50,[54],13.4 µM
same,TGI,[54],61.6 µM
same,GI50,[55],18.9 µM
same,TGI,[55],46.9 µM
same,GI50,[56],15 µM
same,TGI,[56],28.9 µM
same,GI50,[57],8.49 µM
same,TGI,[57],21.7 µM
same,GI50,[58],8.1 µM
same,TGI,[58],20.6 µM
same,GI50,[59],8.66 µM
same,TGI,[59],24.1 µM
